Experimental data: the supplement of paper PMC10307832

Key:
Test in all cases: relative viability (nuclei count vs DMSO), 5 days (fraction); higher = more cells survive
Calu-6 = system: Calu-6
How it was run: (§1)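 Nuclei were stained with Hoechst during a one-step fixation (final 0.05% Triton X-100, 1% formaldehyde, 1 ug/ml Hoechst) carried out 5 days after dosing, then counted on 4× images. The cells, lung cancer lines in 1536-well plates, had been dosed by pin tool the day after seeding with one drug alone or a fixed anchor-drug dose plus five library-drug doses (not always all listed) in √10 steps. Relative viability is the nuclei count in treated wells divided by that in vehicle wells, and each value is the median of duplicate plates.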

COR-L 105 = system: COR-L 105
How it was run: as §1

LK-2 = system: LK-2
How it was run: as §1

A549 = system: A549
How it was run: as §1

EBC-1 = system: EBC-1
How it was run: as §1

IA-LM = system: IA-LM
How it was run: as §1

LCLC-103H = system: LCLC-103H
How it was run: as §1

NCI-H1355 = system: NCI-H1355
How it was run: as §1

NCI-H1299 = system: NCI-H1299
How it was run: as §1

NCI-H520 = system: NCI-H520
How it was run: as §1

NCI-H1703 = system: NCI-H1703
How it was run: as §1

NCI-H1666 = system: NCI-H1666
How it was run: as §1

## CC(=O)O[C@@]12CO[C@@H]1C[C@H](O)[C@@]1(C)C(=O)[C@H](O)C3=C(C)[C@@H](OC(=O)[C@H](O)[C@@H](NC(=O)OC(C)(C)C)c4ccccc4)C[C@@](O)([C@@H](OC(=O)c4ccccc4)[C@H]21)C3(C)C [Docetaxel] + CS(=O)(=O)N1CCN(Cc2cc3nc(-c4cccc5[nH]ncc45)nc(N4CCOCC4)c3s2)CC1 [Pictilisib] (partner 1 µM)
Calu-6; first compound 0.0002 µM
  relative viability: 0.937
Calu-6; first compound 0.000632 µM
  relative viability: 0.754
Calu-6; first compound 0.006325 µM
  relative viability: 0.128
Calu-6; first compound 0.02 µM
  relative viability: 0.0823
COR-L 105; first compound 0.0002 µM
  relative viability: 0.392
COR-L 105; first compound 0.000632 µM
  relative viability: 0.37
COR-L 105; first compound 0.002 µM
  relative viability: 0.278
COR-L 105; first compound 0.006325 µM
  relative viability: 0.228
COR-L 105; first compound 0.02 µM
  relative viability: 0.294
LK-2; first compound 0.0002 µM
  relative viability: 0.496
LK-2; first compound 0.000632 µM
  relative viability: 0.404
LK-2; first compound 0.002 µM
  relative viability: 0.216
LK-2; first compound 0.006325 µM
  relative viability: 0.25
LK-2; first compound 0.02 µM
  relative viability: 0.203
A549; first compound 0.0002 µM
  relative viability: 0.44
A549; first compound 0.000632 µM
  relative viability: 0.22
A549; first compound 0.002 µM
  relative viability: 0.0741
A549; first compound 0.006325 µM
  relative viability: 0.0602
A549; first compound 0.02 µM
  relative viability: 0.035
EBC-1; first compound 0.0002 µM
  relative viability: 0.347
EBC-1; first compound 0.000632 µM
  relative viability: 0.267
EBC-1; first compound 0.002 µM
  relative viability: 0.189
EBC-1; first compound 0.006325 µM
  relative viability: 0.164
IA-LM; first compound 0.0002 µM
  relative viability: 0.183
IA-LM; first compound 0.000632 µM
  relative viability: 0.11
IA-LM; first compound 0.002 µM
  relative viability: 0.0755
IA-LM; first compound 0.006325 µM
  relative viability: 0.0696
IA-LM; first compound 0.02 µM
  relative viability: 0.064
LCLC-103H; first compound 0.0002 µM
  relative viability: 0.537
LCLC-103H; first compound 0.000632 µM
  relative viability: 0.514
LCLC-103H; first compound 0.002 µM
  relative viability: 0.612
LCLC-103H; first compound 0.006325 µM
  relative viability: 0.455
LCLC-103H; first compound 0.02 µM
  relative viability: 0.251
NCI-H1355; first compound 0.0002 µM
  relative viability: 0.479
NCI-H1355; first compound 0.000632 µM
  relative viability: 0.426
NCI-H1355; first compound 0.002 µM
  relative viability: 0.256
NCI-H1355; first compound 0.006325 µM
  relative viability: 0.224
NCI-H1355; first compound 0.02 µM
  relative viability: 0.179
NCI-H1299; first compound 0.0002 µM
  relative viability: 0.761
NCI-H1299; first compound 0.000632 µM
  relative viability: 0.579
NCI-H1299; first compound 0.002 µM
  relative viability: 0.305
NCI-H1299; first compound 0.006325 µM
  relative viability: 0.14
NCI-H1299; first compound 0.02 µM
  relative viability: 0.109
NCI-H520; first compound 0.0002 µM
  relative viability: 0.274
NCI-H520; first compound 0.000632 µM
  relative viability: 0.27
NCI-H520; first compound 0.002 µM
  relative viability: 0.239
NCI-H520; first compound 0.006325 µM
  relative viability: 0.231
NCI-H520; first compound 0.02 µM
  relative viability: 0.157
NCI-H1703; first compound 0.0002 µM
  relative viability: 0.235
NCI-H1703; first compound 0.000632 µM
  relative viability: 0.26
NCI-H1703; first compound 0.002 µM
  relative viability: 0.2
NCI-H1703; first compound 0.006325 µM
  relative viability: 0.161
NCI-H1703; first compound 0.02 µM
  relative viability: 0.136
NCI-H1666; first compound 0.0002 µM
  relative viability: 0.4
NCI-H1666; first compound 0.000632 µM
  relative viability: 0.431
NCI-H1666; first compound 0.002 µM
  relative viability: 0.273
NCI-H1666; first compound 0.006325 µM
  relative viability: 0.198
NCI-H1666; first compound 0.02 µM
  relative viability: 0.169

## CC(=O)O[C@@]12CO[C@@H]1C[C@H](O)[C@@]1(C)C(=O)[C@H](O)C3=C(C)[C@@H](OC(=O)[C@H](O)[C@@H](NC(=O)OC(C)(C)C)c4ccccc4)C[C@@](O)([C@@H](OC(=O)c4ccccc4)[C@H]21)C3(C)C [Docetaxel] + C[C@]1(O)C[C@@H](c2nc(-c3ccc4ccc(-c5ccccc5)nc4c3)c3c(N)nccn32)C1 [Linsitinib] (partner 1 µM)
Calu-6; first compound 0.0002 µM
  relative viability: 0.819
Calu-6; first compound 0.000632 µM
  relative viability: 0.968
Calu-6; first compound 0.002 µM
  relative viability: 0.332
Calu-6; first compound 0.006325 µM
  relative viability: 0.142
Calu-6; first compound 0.02 µM
  relative viability: 0.0881
COR-L 105; first compound 0.0002 µM
  relative viability: 0.899
COR-L 105; first compound 0.000632 µM
  relative viability: 0.757
COR-L 105; first compound 0.002 µM
  relative viability: 0.395
COR-L 105; first compound 0.006325 µM
  relative viability: 0.362
COR-L 105; first compound 0.02 µM
  relative viability: 0.288
LK-2; first compound 0.0002 µM
  relative viability: 0.534
LK-2; first compound 0.000632 µM
  relative viability: 0.445
LK-2; first compound 0.002 µM
  relative viability: 0.154
LK-2; first compound 0.006325 µM
  relative viability: 0.151
LK-2; first compound 0.02 µM
  relative viability: 0.156
A549; first compound 0.0002 µM
  relative viability: 0.578
A549; first compound 0.000632 µM
  relative viability: 0.372
A549; first compound 0.002 µM
  relative viability: 0.0857
A549; first compound 0.006325 µM
  relative viability: 0.0667
A549; first compound 0.02 µM
  relative viability: 0.036
EBC-1; first compound 0.0002 µM
  relative viability: 0.776
EBC-1; first compound 0.000632 µM
  relative viability: 0.872
EBC-1; first compound 0.002 µM
  relative viability: 0.204
EBC-1; first compound 0.006325 µM
  relative viability: 0.271
EBC-1; first compound 0.02 µM
  relative viability: 0.129
IA-LM; first compound 0.0002 µM
  relative viability: 0.351
IA-LM; first compound 0.000632 µM
  relative viability: 0.449
IA-LM; first compound 0.002 µM
  relative viability: 0.112
IA-LM; first compound 0.006325 µM
  relative viability: 0.0528
IA-LM; first compound 0.02 µM
  relative viability: 0.042
LCLC-103H; first compound 0.0002 µM
  relative viability: 0.934
LCLC-103H; first compound 0.000632 µM
  relative viability: 1.18
LCLC-103H; first compound 0.002 µM
  relative viability: 0.919
LCLC-103H; first compound 0.006325 µM
  relative viability: 0.479
LCLC-103H; first compound 0.02 µM
  relative viability: 0.503
NCI-H1355; first compound 0.0002 µM
  relative viability: 0.75
NCI-H1355; first compound 0.000632 µM
  relative viability: 0.771
NCI-H1355; first compound 0.002 µM
  relative viability: 0.467
NCI-H1355; first compound 0.006325 µM
  relative viability: 0.297
NCI-H1355; first compound 0.02 µM
  relative viability: 0.188
NCI-H1299; first compound 0.0002 µM
  relative viability: 0.905
NCI-H1299; first compound 0.000632 µM
  relative viability: 0.98
NCI-H1299; first compound 0.002 µM
  relative viability: 0.787
NCI-H1299; first compound 0.006325 µM
  relative viability: 0.432
NCI-H1299; first compound 0.02 µM
  relative viability: 0.255
NCI-H520; first compound 0.0002 µM
  relative viability: 1.06
NCI-H520; first compound 0.000632 µM
  relative viability: 0.887
NCI-H520; first compound 0.002 µM
  relative viability: 0.277
NCI-H520; first compound 0.006325 µM
  relative viability: 0.182
NCI-H520; first compound 0.02 µM
  relative viability: 0.133
NCI-H1703; first compound 0.0002 µM
  relative viability: 0.741
NCI-H1703; first compound 0.000632 µM
  relative viability: 1.15
NCI-H1703; first compound 0.002 µM
  relative viability: 0.258
NCI-H1703; first compound 0.006325 µM
  relative viability: 0.116
NCI-H1703; first compound 0.02 µM
  relative viability: 0.101
NCI-H1666; first compound 0.0002 µM
  relative viability: 0.712
NCI-H1666; first compound 0.000632 µM
  relative viability: 0.404
NCI-H1666; first compound 0.002 µM
  relative viability: 0.383
NCI-H1666; first compound 0.006325 µM
  relative viability: 0.28
NCI-H1666; first compound 0.02 µM
  relative viability: 0.211
